This is an account of results in patent publication US10351559B2, “Maleate salts of a B-RAF kinase inhibitor, crystalline forms, methods of preparation, and uses therefore” (BeiGene, Ltd., priority 2015, dated 2019).

For one experiment, the target named is CYP2C19 (Homo sapiens, UniProt P33261). The experiment in a line: CYP inhibition. It is filed as in vitro ADME.
In another experiment the target is T1, C-Raf (Y340D/Y341D) (Homo sapiens, UniProt P04049, Y340D/Y341D).
T1 construct: purchased Life Technologies PV3805
T1 sequence (P04049 whole entry Y340D/Y341D): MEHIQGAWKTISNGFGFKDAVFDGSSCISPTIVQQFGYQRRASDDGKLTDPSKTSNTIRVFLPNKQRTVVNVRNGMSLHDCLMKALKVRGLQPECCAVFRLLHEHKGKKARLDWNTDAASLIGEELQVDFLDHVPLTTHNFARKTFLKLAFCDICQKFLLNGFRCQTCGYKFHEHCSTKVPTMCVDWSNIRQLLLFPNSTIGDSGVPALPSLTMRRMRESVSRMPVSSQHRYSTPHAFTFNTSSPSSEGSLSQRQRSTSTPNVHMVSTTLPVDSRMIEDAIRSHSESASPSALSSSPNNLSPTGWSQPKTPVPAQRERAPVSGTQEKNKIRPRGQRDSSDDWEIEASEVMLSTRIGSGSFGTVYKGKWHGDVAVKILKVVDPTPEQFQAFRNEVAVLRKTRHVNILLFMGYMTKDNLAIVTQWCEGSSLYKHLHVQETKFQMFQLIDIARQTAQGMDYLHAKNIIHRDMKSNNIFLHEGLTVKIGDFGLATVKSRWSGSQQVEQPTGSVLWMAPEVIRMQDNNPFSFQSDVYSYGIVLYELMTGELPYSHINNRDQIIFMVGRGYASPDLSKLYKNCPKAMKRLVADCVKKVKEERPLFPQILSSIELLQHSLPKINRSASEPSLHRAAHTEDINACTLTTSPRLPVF
Put plainly: Raf kinase enzymatic assay (HTRF). It is filed as biochemical. The method, then:
(§1) Crystalline Form A* of Compound 1 Sesqui-Maleate was tested against recombinant B-Raf (V600E) (PV3849), C-Raf (Y340D/Y341D) (PV3805) and wild-type Braf (PV3848) from Life Technologies in kinase activity assays based on homogeneous time-resolved fluorescence (HTRF) methodology (Cisbio Bioassays). The assays were carried out in a reaction mixture containing RAF kinases, ATP at KM concentration, GST-tagged MEK1 (K97R) and Crystalline Form A* of Compound 1 Sesqui-Maleate or DMSO in buffer containing 25 mM Tris pH7.4, 10 mM MgCl2, 0.5 mM EGTA, 0.5 mM Na3VO4, 5 mM beta-glycerophosphate, 0.01% Triton X-100, 2.5 mM DTT and 0.1% BSA. The kinase was incubated with Crystalline Form A* of Compound 1 Sesqui-Maleate for 1 hr at room temperature (RT) and the reaction was initiated by the addition of ATP and GST-MEK1 (Full-length protein with K97R mutation, recombinant protein purified from bacterial expression system). After reaction at RT for 1 hr, stop/detection solution was added according to the manufacture's instruction (Cisbio Bioassays). The stop/detection solution contained Eu3+ cryptate-conjugated anti-phospho MEK1/2 (Ser217/221) rabbit polyclonal antibody and d2-conjugated anti-GST mouse monoclonal antibody in buffer containing 25 mM Tris pH7.4, 400 mM KF, 50 mM EDTA, 0.1% BSA and 0.01% Triton X-100. The TR-FRET signals (ratio of fluorescence emission at 665 nm over emission at 620 nm with excitation at 337 nm wavelength) were measured on a PHERAstar FS plate reader (BMG Labtech) after 1.5 hr incubation. Phosphorylation of MEK1 led to the binding of anti-phospho-MEK1/2 antibody to GST-MEK1 protein that place fluorescent donor (Eu3+ crypate) in close proximity to the accepter d2 on the anti-GST antibody, thus resulting in a high degree of fluorescence resonance energy transfer from the donor fluorophore (at 620 nm) to the acceptor fluorophore (at 665 nm). The IC50 for Crystalline Form A* of Compound 1 Sesqui-Maleate was derived from fitting the dose-response % inhibition data to the four-parameter logistic model by Graphpad Prism software.
Background: TR-FRET usually uses a lanthanide donor and a delayed reading to cut background.

For another experiment, the target named is wild-type Braf (Homo sapiens, UniProt P15056). Put plainly: Raf kinase enzymatic assay (HTRF). It is filed as biochemical. As for the experimental part: as §1
Sequence of wild-type Braf (P15056 whole entry): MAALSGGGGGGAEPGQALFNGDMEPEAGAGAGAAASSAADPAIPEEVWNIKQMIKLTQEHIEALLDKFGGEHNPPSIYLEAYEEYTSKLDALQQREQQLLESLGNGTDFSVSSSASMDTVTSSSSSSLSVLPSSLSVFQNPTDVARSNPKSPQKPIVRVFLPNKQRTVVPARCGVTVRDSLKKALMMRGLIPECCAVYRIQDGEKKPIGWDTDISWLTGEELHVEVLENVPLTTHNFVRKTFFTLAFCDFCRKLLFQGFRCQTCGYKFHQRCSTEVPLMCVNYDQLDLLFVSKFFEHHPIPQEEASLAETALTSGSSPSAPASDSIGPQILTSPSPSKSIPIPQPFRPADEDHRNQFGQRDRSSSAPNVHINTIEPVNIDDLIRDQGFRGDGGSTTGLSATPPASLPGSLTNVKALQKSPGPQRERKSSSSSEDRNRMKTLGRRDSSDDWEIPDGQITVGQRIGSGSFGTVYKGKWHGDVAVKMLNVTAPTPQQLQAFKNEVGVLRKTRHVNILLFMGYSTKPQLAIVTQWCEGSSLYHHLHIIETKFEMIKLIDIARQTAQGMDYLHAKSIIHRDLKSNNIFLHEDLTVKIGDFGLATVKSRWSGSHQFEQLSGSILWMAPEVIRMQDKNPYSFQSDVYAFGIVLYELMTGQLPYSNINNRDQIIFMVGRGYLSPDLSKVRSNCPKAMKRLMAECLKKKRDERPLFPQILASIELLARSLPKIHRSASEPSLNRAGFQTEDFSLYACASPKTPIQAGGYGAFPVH
Experiment [1] has as its system A431 epidermoid carcinoma (EGFR overexpression) xenografts. Put plainly: xenograft efficacy study. It is filed as in vivo, BALB/C nude mice. To be noted: A431 xenografts in nude mice, oral. The method, then:
(§2) Human cancer cells were inoculated subcutaneously in the right axilla region of BALB/C nude mice to generate tumor xenografts. On the day of implantation, the cell culture medium was replaced with fresh medium. Three hours later, the media was removed and the cells were collected and re-suspended in cold (4° C.) PBS prior to inoculation. The right axilla region of each mouse was cleaned with 70% ethanol prior to cell inoculation. Each animal was injected subcutaneously with desired cells in 200 μl of cell suspension in the right front flank via a 26-gauge needle. After implantation tumor volumes were measured twice weekly in two dimensions using a calliper. Tumor volume was calculated using the formula: V=0.5×(a×b^2) where a and b are the long and short diameters of the tumor, respectively.
(§3) For in vivo efficacy studies, when the average tumor size reaches 100˜200 mm^3, animals were assigned into desired number of groups with 6-10 mice per group using a stratified randomization procedure. The groups consisted of a control group (no drug treatment), and different dose levels of Crystalline Form A* of Compound 1 Sesqui-Maleate treatment groups (ranged from 1-20 mg/kg). All doses were based on free-base weight. Drugs were administered by oral gavage once (qd) or twice (bid) daily; dosing frequency depended on the individual case for tumor growth. Treatments were administered by oral gavage (p.o.) in a volume of 10 ml/kg body weight. Body weight was assessed immediately before dosing and the volume dosed was adjusted accordingly. Individual body weights and tumor volumes were determined twice weekly, with mice being monitored daily for clinical signs of toxicity for the duration of the study. Mice were euthanized using carbon dioxide once their tumor volume reached 2000 mm^3, the tumor was ulcerated, or body weight loss exceeded 20%. All group data was analyzed using the t test. If the p value was <0.05, it was considered to be statistically significant.
(§4) Tumor growth inhibition (TGI) was calculated using the following formula: […]

Experiment [2] concerns LOX melanoma (B-RAF V600E mutation) xenografts. The experiment in a line: xenograft efficacy study. The following applies: LOX xenografts in nude mice, oral. Type of experiment: in vivo, BALB/C nude mice. The method, then:
as §2, §3, §4

The subject of experiment [3] is human A375 melanoma (B-RAF V600E mutation) xenografts. The experiment in a line: xenograft efficacy study. To be noted: A375 xenografts in nude mice, oral. It is filed as in vivo, BALB/C nude mice. As for the experimental part: as §2, §3, §4
The test system of experiment [4] is Colo205 colorectal carcinoma (B-RAF V600E mutation) xenografts. Put plainly: xenograft efficacy study. Type of experiment: in vivo, BALB/C nude mice. The following applies: Colo205 xenografts in nude mice, oral. The method, then: as §2, §3, §4
Experiment [5] has as its system HT29 colorectal carcinoma (B-RAF V600E mutation) xenografts. Put plainly: xenograft efficacy study. Type of experiment: in vivo, BALB/C nude mice. The following applies: HT29 xenografts in nude mice, oral. As for the experimental part: as §2, §3, §4
The test system of experiment [6] is HCC827 lung carcinoma (EGFR mutation) xenografts. The experiment in a line: xenograft efficacy study. Type of experiment: in vivo, BALB/C nude mice. To be noted: HCC827 xenografts in nude mice, oral. The method, then: as §2, §3, §4
In experiment [7] the test system is WiDr colorectal carcinoma (B-RAF V600E mutation) xenografts. The experiment in a line: xenograft efficacy study. It is filed as in vivo, BALB/C nude mice. To be noted: WiDr xenografts in nude mice, oral. As for the experimental part:
as §2, §3, §4

Where a name gives a salt, the structure may show the parent alone.

In general, IC50 refers to the concentration that gives 50% inhibition. Higher therefore signals weaker potency.

Sequence of CYP2C19 (P33261 whole entry): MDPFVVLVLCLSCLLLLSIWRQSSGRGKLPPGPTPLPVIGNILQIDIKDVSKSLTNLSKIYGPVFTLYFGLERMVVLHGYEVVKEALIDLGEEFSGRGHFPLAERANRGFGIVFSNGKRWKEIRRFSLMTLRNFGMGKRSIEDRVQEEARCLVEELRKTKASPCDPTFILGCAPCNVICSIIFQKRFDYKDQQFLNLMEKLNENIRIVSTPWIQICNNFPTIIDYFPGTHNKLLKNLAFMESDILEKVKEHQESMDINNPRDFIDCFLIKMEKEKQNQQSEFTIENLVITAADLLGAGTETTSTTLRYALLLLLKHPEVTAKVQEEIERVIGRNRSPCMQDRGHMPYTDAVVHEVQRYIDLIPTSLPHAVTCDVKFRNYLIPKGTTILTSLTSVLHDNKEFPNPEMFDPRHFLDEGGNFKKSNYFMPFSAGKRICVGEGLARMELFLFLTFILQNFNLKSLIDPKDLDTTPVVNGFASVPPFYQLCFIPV

With `O=C1CCc2c(Oc3ccc4c(c3)[C@@H]3[C@H](O4)[C@H]3c3nc4ccc(C(F)(F)F)cc4[nH]3)ccnc2N1` [5-(((1R,1aS,6bR)-1-(6-(trifluoromethyl)-1H-benzo[d]imidazol-2-yl)-1a,6b-dihydro-1H-cyclopropa[b]benzofuran-5-yl)oxy)-3,4-dihydro-1,8-naphthyridin-2(1H)-one sesqui-maleate salt], the IC50 on CYP2C19 was found to be 1960 nM; at C-Raf (Y340D/Y341D) (CRAF Y340, 341D, ATP at KM), 3.5 nM; against wild-type Braf (WT-BRAF, ATP at KM) it was 69 nM. The “enzyme inhibition” value at C-Raf (Y340D/Y341D) (C-RAF) is “potent and reversible inhibitor”; at wild-type Braf (wild-type B-RAF) it was “potent and reversible inhibitor”. For the same compound, the antitumor activity result in [1], in experiment [2], in experiment [3], in experiment [4], in [5] and in experiment [6] was “marked antitumor activity” each time. For the same compound, the antitumor activity entry in experiment [7] is given as “marked antitumor activity”.
